In the supplement of paper PMC12317010:
Where a name gives a salt, the structure may show the parent alone.

Assay: collision cross section in nitrogen (drift tube, single-field); higher = larger gas-phase ion size
[1] = ion type: [M+H], ion source: APCI, ion mode: Positive
[2] = ion type: [M+H], ion source: ESI, ion mode: Positive
[3] = ion type: [M+], ion source: APCI, ion mode: Positive
[4] = ion type: [M-H], ion source: ESI, ion mode: Negative
[5] = ion type: [M+Na], ion source: ESI, ion mode: Positive
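Further: chemical standards at 10 µM analysed by drift tube IMS-QTOF MS in about 3.95 torr nitrogen, mean of duplicate injections differing ≤1%, mass error below 10 ppm.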

SMILES	collision cross section in nitrogen [1] [Å²]	collision cross section in nitrogen [2] [Å²]	collision cross section in nitrogen [3] [Å²]	collision cross section in nitrogen [4] [Å²]	collision cross section in nitrogen [5] [Å²]
OCCN(CCO)c1ccccc1 [N-Phenyl diethanolamine]	137.7	137.9			
Nc1ccc(Nc2ccccc2)cc1 [N-Phenyl-1,4-benzenediamine]	143.1				
c1ccc(Nc2cccc3ccccc23)cc1 [N-Phenyl-1-naphthylamine]	149.7		148.7	152.1	
c1ccc(Nc2ccc3ccccc3c2)cc1 [N-Phenyl-2-naphthylamine]	150	151.3	149.2		
CCCCCCCCC(=O)NCc1ccc(O)c(OC)c1 [N-Vanillylnonanamide]					178
CCCCCCCCCCCC(=O)NCCCN(C)C [N-[3-(Dimethylamino)propyl]dodecanamide]	185.5	185.2			181.8
CNC(=O)C(c1ccccc1)c1ccccc1 [N-methyl-alpha-phenylbenzeneacetamide]	153.4	152.9			162.2
CCn1cc(C(=O)O)c(=O)c2ccc(C)nc21 [Nalidixic acid]	147.5	147.8			161.1
CCN(CC)C(=O)C(C)Oc1cccc2ccccc12 (stereo not drawn) [Napropamide]	163.8	164.2			172
O=C(O)c1ccccc1C(=O)Nc1cccc2ccccc12 [Naptalam]				168.6	170.9
Cc1cccc(C)c1NC(=O)CN1CCCC1=O [Nefiracetam]					167.3
COc1ccc(S(=O)(=O)N2C(=O)[C@@](c3ccccc3OC)(N3C[C@H](O)C[C@H]3C(=O)N(C)C)c3cc(Cl)ccc32)c(OC)c1 [Nelivaptan]	231.8	230.6		233.1	233.3
CCC(C)(CCC(C)C)C(=O)O (stereo not drawn) [Neodecanoic acid]				145.2	
CC(C)(COC(=O)c1ccccc1)COC(=O)c1ccccc1 [Neopentyl glycol dibenzoate]					180.7
CC(C)(COCC1CO1)COCC1CO1 (stereo not drawn) [Neopentyl glycol diglycidyl ether]					148.2
NC(=O)c1cccnc1 [Niacinamide]	125.7				
COC(=O)C1=C(C)NC(C)=C(C(=O)OCCN(C)Cc2ccccc2)C1c1cccc([N+](=O)[O-])c1 (stereo not drawn) [Nicardipine hydrochloride]	213	212.6	208.8	214.2	211.2
COc1cc(OC)nc(NC(=O)NS(=O)(=O)c2ncccc2C(=O)N(C)C)n1 [Nicosulfuron]					196.2
CN1CCC[C@H]1c1cccnc1 [Nicotine sulfate (2:1)]	137	137.7			
O=C(O)c1cccnc1 [Nicotinic acid]		124.2			
OCc1cccnc1 [Nicotinyl alcohol]	119.2	119.8			

SMILES	collision cross section in nitrogen [1] [Å²]	collision cross section in nitrogen [2] [Å²]	collision cross section in nitrogen [3] [Å²]	collision cross section in nitrogen [4] [Å²]	collision cross section in nitrogen [5] [Å²]
CC1(C)NC(=O)N(c2ccc([N+](=O)[O-])c(C(F)(F)F)c2)C1=O [Nilutamide]				162.8	
COC(=O)C1=C(C)NC(C)=C(C(=O)OCC(C)C)C1c1ccccc1[N+](=O)[O-] (stereo not drawn) [Nisoldipine]					195.5
O=[N+]([O-])c1ccc([As](=O)(O)O)cc1 [Nitarsone]		144.4		138.9	
CCCN(CCC)c1c([N+](=O)[O-])cc(S(C)(=O)=O)cc1[N+](=O)[O-] [Nitralin]				177	
O=[N+]([O-])O [Nitric acid, calcium salt (2:1)]				104.5	
CNC(=C[N+](=O)[O-])NCCSCc1csc(CN(C)C)n1 [Nizatidine]	171.3	171		181.9	178.1
CN1Cc2c(N)cccc2C(c2ccccc2)C1 (stereo not drawn) [Nomifensine]	155.8	156.2			
O=C(O)CCCCCCCC(=O)O [Nonanedioic acid]				140.7	
CCCCCCCCC(=O)O [Nonanoic acid]				146.2	
CC(Cc1ccc(O)c(O)c1)C(C)Cc1ccc(O)c(O)c1 (stereo not drawn) [Nordihydroguaiaretic acid]				167.5	
C#C[C@]1(O)CC[C@H]2[C@@H]3CCC4=CC(=O)CC[C@@H]4[C@H]3CC[C@@]21C [Norethindrone]		178.1			
CNc1cnn(-c2cccc(C(F)(F)F)c2)c(=O)c1Cl [Norflurazon]	162.7	162.4		160.9	171.9
O=C(NC(=O)c1c(F)cccc1F)Nc1ccc(OC(F)(F)C(F)OC(F)(F)F)c(Cl)c1 (stereo not drawn) [Novaluron]				204.4	
OC(c1ccc(F)cc1)(c1cncnc1)c1ccccc1Cl (stereo not drawn) [Nuarimol]	171.6	171.2		170.7	
CCOP(=S)(S)OCC [O,O′-Diethyl hydrogen dithiophosphate]				135	
CCCCCCCCCCCCCCCCCC(=O)O [Octadecanoic acid]				177.2	
CCCCCCCCCCCCCCCCCCOS(=O)(=O)O [Octadecyl sulfate sodium salt]				189.8	
CCCCC(CC)COC(=O)C=Cc1ccc(OC)cc1 (stereo not drawn) [Octinoxate]					184.1
CC(C)(C)CC(C)(C)c1ccc(O)c(-n2nc3ccccc3n2)c1 [Octrizole]	186.3			190	
CCCCCCCCO[C@@H]1O[C@H](CO)[C@@H](O)[C@H](O)[C@H]1O [Octyl beta-D-glucopyranoside]				180.1	181.2
CCCCCCCCCCOC(=O)c1ccccc1C(=O)OCCCCCCCC [Octyl decyl phthalate]		222.5			219.1
